Measured values from patent US20180071307A1, “MEDICINAL COMPOSITION FOR ALLEVIATING ENDOMETRIOSIS AND COMPLICATIONS THEREOF AND USE OF THE SAME” (NATIONAL SUN YAT-SEN UNIVERSITY, priority 2016, published 2018).

How the values were obtained:
[1] = tested on: inflammatory cells (small peritoneal macrophages, neutrophils) in abdominal cavity; assay: mouse model of endometriosis: inflammatory cells in abdominal cavity; format: in vivo, C57BL/6 mice; settings: comparing with naive, sham and vehicles; for small peritoneal macrophages in abdominal cavity: three weeks of treatment (FIG. 8A); for neutrophils in abdominal cavity: three weeks of treatment (FIG. 8B)
Procedure: (§1) Mature (approximately 8-week-old) female C57BL/6 mice were purchased from Harlan Laboratories (Derby, UK) and were allowed to acclimate for 1 week before surgery. Mice were maintained on standard chow and water available ad libitum and were housed in environmentally controlled facilities illuminated between 7:00 AM and 7:00 PM. All the animal procedures were performed in accordance with legal requirements.
(§2) Typically, menstruation was induced in adult donor mice (approximately 8 weeks of age) using a protocol developed as aforemented. In brief, long-term ovariectomized (OVE) mice (day 1) were primed with s.c. injections of 100 ng of estradiol-17β (days 7 to 9), treated with progesterone (P4; Sigma-Aldrich, Dorset, UK) delivered via a SILASTIC implant (Dow Corning Corp, Midland, Mich.) from days 13 to 19, and injected with 5 ng of estradiol-17β in sesame oil on days 13, 14, and 15. Decidualization was induced in one uterine horn using […] of oil (day 15), and endometrial tissue in the process of being shed from the decidualized horn was recovered from mice culled on day 19, 4 hours after P4 withdrawal (removal of pellet) by opening the horn longitudinally in a petri dish and scraping the tissue away from the myometrial layer using a scalpel. The tissue mass was suspended in 0.2 mL of PBS and passed through a 19-gauge needle before being injected i.p. into anesthetized recipient mice (approximately 8 weeks of age) that had been previously ovariectomized and implanted with an estradiol-17β (Sigma-Aldrich) SILASTIC implant (FIG. 6). Tissue from one decidualized donor horn was used to inoculate each recipient mouse (approximately 40 mg tissue/0.2 mL PBS per mouse) on day 19. In FIG. 6, there are four groups: B, injecting recipient mice with EV once and vehicle of CX-5461 every Monday, Wednesday and Friday for three weeks; GSK, injecting recipient mice with EV once and GSK2126458 on Monday to Friday for three weeks; A, injecting recipient mice with EV once and vehicle of GSK2126458 on Monday to Friday for three weeks; Sham, injecting recipient mice with EV once (no endometriosis, hormone treatment); Naive, mice without endometriosis or treated with any hormone or drug.
[…] E2 (E2, 100 ng/100 μL or 5 ng/100 μL) was diluted in sesame oil. Estradiol valerate (EV, 500 ng/100 μL) was diluted in sesame oil. P4 pellet was fused with progesterone (P4; Sigma-Aldrich, Dorset, UK) delivered via a SILASTIC implant (Dow Corning Corp, Midland, Mich.). […]

[2] = tested on: endometriosis-related pain; assay: mouse model of endometriosis: tunnel entries (overall activity); format: in vivo, C57BL/6 mice; settings: versus vehicles; day 33 to day 40 (FIG. 9A)
Procedure: as §1
(§3) Typically, menstruation was induced in adult donor mice (approximately 8 weeks of age) using a protocol developed as aforemented. In brief, long-term ovariectomized (OVE) mice (day 1) were primed with s.c. injections of 100 ng of estradiol-17β (days 7 to 9), treated with progesterone (P4; Sigma-Aldrich, Dorset, UK) delivered via a SILASTIC implant (Dow Corning Corp, Midland, Mich.) from days 13 to 19, and injected with 5 ng of estradiol-17β in sesame oil on days 13, 14, and 15. […]
On day 33 to day 40, some behavior tests were scored from tunnel entries and pressure pain thresholds. Mice freely moved in three cages connected by tunnels, and numbers of tunnel entered by each mouse were measured in five minutes, and the average of three measures were calculated, for evaluating overall activity of each mouse. […]

[3] = tested on: effectors of ribosome biogenesis (selected snoRNAs and RPs); assay: qPCR of effectors of ribosome biogenesis in ovarian clear cell carcinoma cells; format: cell-based, human; settings: ES-2 and TOV-21G, following 24 h of treatment
Source text: (§4) For anti-ribosome biogenesis assays, including cell growth, cell migration and cell cycle analysis, ovarian clear cells were maintained for five days in culture medium with or without RNA polymerase I inhibitor, CX-5461 (Selleckchem, Houston, Tex.) or GSK2126458 (GlaxoSmithKline, Middlesex, United Kingdom).
(§5) Please refer to FIGS. 4A to 4E, which illustrate that mTOR/c-Myc inhibition suppresses cell growth and mobility of ovarian clear cells according to an embodiment of the present invention. FIG. 4A is depicted to ovarian cancer cell lines, ES-2 and TOV-2IG, treated with the mTOR/c-Myc inhibitor, GSK2126458, at a final concentration of 50 nM. GSK2126458 effects on effectors of ribosome biogenesis were measured by qPCR at the indicated time points. […] FIG. 4B is depicted to GSK2126458 effects on cell growth were assessed via MTT assay. FIG. 4C is depicted to cell mobility measured using wound-healing migration assays. Cells migrating into the detection zone were counted and averaged from eight replicates. […] FIG. 4E is depicted to cell cycle inhibited by GSK2126458 after 48 hours of treatment and analyzed by flow cytometry using propidium iodide DNA staining. […]
(§6) Please refer to FIGS. 5A to 5D, which illustrate that RNA polymerase 1 inhibition suppresses cell growth and mobility of ovarian clear cells. […] FIG. 5B is depicted to CX-5461 effects on cell growth were assessed via MTT assay. […]

[4] = tested on: ovarian clear cell carcinoma cell lines ES-2 and TOV-21G; assay: DNA synthesis (BrdU incorporation); format: cell-based, human; settings: after 48 h of treatment
Source text: as §4
(§7) Please refer to FIGS. 4A to 4E, which illustrate that mTOR/c-Myc inhibition suppresses cell growth and mobility of ovarian clear cells according to an embodiment of the present invention. FIG. 4A is depicted to ovarian cancer cell lines, ES-2 and TOV-2IG, treated with the mTOR/c-Myc inhibitor, GSK2126458, at a final concentration of 50 nM. GSK2126458 effects on effectors of ribosome biogenesis were measured by qPCR at the indicated time points. Data were represented as means of triplicates with standard variations. FIG. 4B is depicted to GSK2126458 effects on cell growth were assessed via MTT assay. FIG. 4C is depicted to cell mobility measured using wound-healing migration assays. Cells migrating into the detection zone were counted and averaged from eight replicates. FIG. 4D is depicted to DNA synthesis (BrdU incorporation) of cells influenced by GSK2126458. FIG. 4E is depicted to cell cycle inhibited by GSK2126458 after 48 hours of treatment and analyzed by flow cytometry using propidium iodide DNA staining. The cell cycle of many cells was inhibited and arrested at G1 phase.

[5] = tested on: ovarian clear cell carcinoma cell lines ES-2 and TOV-21G; assay: wound-healing migration assay (cell mobility); format: cell-based, human; settings: after 48 h of treatment
Source text: as §4, §5, §6

TOV-21G cells = assay: cell cycle analysis by flow cytometry using propidium iodide DNA staining, TOV-21G; format: cell-based, human; settings: after 96 h of treatment
Source text: as §4
(§8) Please refer to FIGS. 5A to 5D, which illustrate that RNA polymerase 1 inhibition suppresses cell growth and mobility of ovarian clear cells. FIG. 5A is depicted to cells treated with the RNA polymerase 1 inhibitor, CX-5461, at a final concentration of 25 nM. CX-5461 effects on downstream effectors of ribosome biogenesis were measured by qPCR at the indicated time points. Data were represented as means of triplicates with standard variations. FIG. 5B is depicted to CX-5461 effects on cell growth were assessed via MTT assay. FIG. 5C is depicted to cell mobility measured using wound-healing migration assays. Cells migrating into the detection zone were counted and averaged from eight replicates. FIG. 5D is depicted to treated cells that were analyzed at the indicated time points by flow cytometry using propidium iodide DNA staining.

[6] = tested on: ovarian clear cell carcinoma cell lines ES-2 and TOV-21G; assay: cell growth via MTT assay; format: cell-based, human; settings: after 48 h of treatment
Source text: as §4, §5, §6

endometriosis lesions = assay: mouse model of endometriosis: lesion numbers; format: in vivo, C57BL/6 mice; settings: compared to respective vehicle; CX-5461 1.25 mg/100 μL thrice per week, GSK2126458 0.075 mg/100 μL five times per week, three weeks
Procedure: as §1
as §3, with “15. Decidualization was induced in one uterine horn using […] of oil (day 15), and endometrial tissue in the process of being shed from the decidualized horn was recovered from mice culled on day 19, 4 hours after P4 withdrawal (removal of pellet) by opening the horn longitudinally in a petri dish and scraping the tissue away from the myometrial layer using a scalpel.” for “15.”

ES-2 cells = assay: cell cycle analysis by flow cytometry using propidium iodide DNA staining, ES-2; format: cell-based, human; settings: after 96 h of treatment
Source text: as §4, §8

[7] = tested on: endometriosis-related pain; assay: mouse model of endometriosis: pressure pain thresholds (mechanical hyperalgesia); format: in vivo, C57BL/6 mice; settings: versus vehicles; for abdominal retraction threshold: day 33 to day 40 (FIG. 9B); for paw withdrawal threshold: hind paw, day 33 to day 40 (FIG. 9C)
Procedure: as §1
as §2, with “In FIG. 6, there are four groups: B, injecting recipient mice with EV once and vehicle of CX-5461 every Monday, Wednesday and Friday for three weeks; GSK, injecting recipient mice with EV once and GSK2126458 on Monday to Friday for three weeks; A, injecting recipient mice with EV once and vehicle of GSK2126458 on Monday to Friday for three weeks; Sham, injecting recipient mice with EV once (no endometriosis, hormone treatment); Naive, mice without endometriosis or treated with any hormone or drug.” left out
Pressure pain thresholds were assessed by a commercially available pain evaluation kit (Touch Test® Sensory Evaluators (North Coast Medical Inc., CA, U.S.A.). This pain evaluation kit has different probes (or needles) of different diameters, which were respectively stab the abdomen or the palmar side of the hind paw of mice. Mice were instructed to signal when the stimulus became painful, and observed which size cause painful. Threshold levels (gravity, g) were assessed before and after the test, and the average of three measures were calculated, for evaluating abdominal retraction threshold (g) or paw withdrawal threshold (g) of each mouse. […]

[8] = tested on: ovarian clear cell carcinoma cell lines ES-2 and TOV-21G; assay: cell cycle analysis by flow cytometry using propidium iodide DNA staining (both cell lines, result in words); format: cell-based, human; settings: after 48 hours of treatment (FIG. 4E)
Source text: as §4, §7

| SMILES | small peritoneal macrophages in abdominal cavity [1] | neutrophils in abdominal cavity [1] | overall activity (tunnel entries in five minutes) [2] | expression of the selected snoRNAs and RPs (qPCR, FIG. 5A) ([3]; CX-5461 at 25 nM) | expression of the selected snoRNAs and RPs (qPCR, FIG. 4A) ([3]; FIG. 4A legend: GSK2126458 at 50 nM) | DNA synthesis [4] | cell mobility rate [5] | cell arrest at G2/M-phase (TOV-21G cells) | cell death (TOV-21G cells) | cell proliferation rate [6] | lesion numbers (endometriosis lesions) | cell arrest at G2/M-phase (ES-2 cells) | cell death (ES-2 cells) | abdominal retraction threshold [7] | paw withdrawal threshold [7] | cell cycle arrest [8] | cells of sub-G1 phase (implying cell death) [8] |
| --- | --- | --- | --- | --- | --- | --- | --- | --- | --- | --- | --- | --- | --- | --- | --- | --- | --- |
| Cc1cnc(CNC(=O)c2c(=O)c3ccc(N4CCCN(C)CC4)nc3n3c2sc2ccccc23)cn1 [CX-5461] | significantly reduced | significantly reduced | more active | reduced | reduced | inhibition | decreased | 52.3% | 23.4% | decreased | significantly reduced | 48.1% | 12.3% | higher | higher |  |  |
| COc1ncc(-c2ccc3nccc(-c4ccnnc4)c3c2)cc1NS(=O)(=O)c1ccc(F)cc1F [GSK2126458, 2,4-difluoro-N-[2-methoxy-5-[4-(4-pyridazinyl)-6-quinolinyl]-3-pyridinyl]benzenesulfonamide] | significantly reduced | significantly reduced | more active |  |  | inhibition | decreased |  |  | decreased | significantly reduced |  |  | higher | higher | cell arrest at G1-phase | increased |
